Consider one compound from patent US20050058707A1, “Uniform delivery of topiramate over prolonged period of time with enhanced dispersion formulation” (priority 2003, published 2005).

In brackets after ≈: the same amount, converted by molar mass. Read-outs that look alike come from different tables or passages of the source.

For data set [1] the following is noted: Physicians' Desk Reference; cited from earlier work.
The nature of data set [2]: Aqueous solubility of topiramate. As to conditions: 37 °C, thermodynamic from solid. The data set is classed as physicochemical. As to the method:
Aqueous solubility is determined by adding the therapeutic agent to stirred or agitated water maintained in a constant temperature bath at a temperature of 37 degrees centigrade until no more agent dissolves. The resulting solution saturated with active agent is then filtered, typically under pressure through a 0.8-micron Millipore filter, and the concentration in solution is measured by any appropriate analytical method including gravimetric, ultraviolet spectrophometry, chromatography, and the like.

In general, solubility refers to the dissolved amount per volume that the medium holds. With `CC1(C)O[C@@H]2[C@@H](CO[C@@]3(COS(N)(=O)=O)OC(C)(C)O[C@@H]23)O1` [Topiramate, topiramate], the solubility in water entry in data set [1] was “about 9.8 mg/ml”. The solubility in data set [2] (de-ionized water, read-out: Solubility of neat topiramate measured in de-ionized water) is 12 mg/mL (≈ 35.4 mM); in data set [2] (water, read-out: solubility) it was 9.8 to 13 mg/mL (≈ 28.9 to 38.3 mM).
